Laboratory results from the NIST ThermoML archive (doi:10.1021/je101250d).
“And” between values parts separate entries of the source, which are not always exact repeats. Equal entries are not always repeated.

Tests used:
[1] = refractive index (Na D-line) (dimensionless); details: 298.15 K; 101.33 kPa; Liquid; Standard Abbe refractometry
[2] = Liquid; for mass density: 298.15 K, 101.33 kPa, Vibrating tube method
[3] = Boiling temperature at pressure P; details: 101.33 kPa; Liquid; Ebulliometric method (Recirculating still)

CCC(C)O (stereo not given) [butan-2-ol]
Details | mass density [kg/m3] | refractive index
[1] | – | 1.39676
[2] | 802.98 | –

[2]
Details | vapor or sublimation pressure [kPa]
334.83 K | 20.01
339.42 K | 25.01
343.31 K | 30.01
346.69 K | 35.01
349.69 K | 40.01
352.38 K | 45.01
354.84 K | 50.01
354.91 K | 50
355.12 K | 50
357.11 K | 55.01
359.21 K | 60.01
361.55 K | 66.01
364.08 K | 73.01
364.8 K | 75
365.2 K | 75
366.4 K | 80.01
368.58 K | 87.01
370.61 K | 94.01
370.66 K | 94
371.17 K | 94

CCC(C)(C)OC [2-methoxy-2-methylbutane]
Details | Boiling temperature at pressure P [°C] | mass density [kg/m3] | refractive index
[1] | – | – | 1.38712
[2] | – | 765.83 | –
[3] | 86.37 | – | –

[2]
Details | vapor or sublimation pressure [kPa]
313.44 K | 20.01
318.99 K | 25.01
323.68 K | 30.01
327.77 K | 35.01
331.41 K | 40.01
334.69 K | 45.01
337.64 K | 50
337.66 K | 50
337.69 K | 50.01
340.46 K | 55.01
343.03 K | 60.01
345.89 K | 66.01
348.97 K | 73.01
349.73 K | 75
349.8 K | 75
351.84 K | 80.01
354.52 K | 87.01
356.92 K | 94
357.02 K | 94.01
357.04 K | 94
359.95 K | 102.73

CCCCCCC [heptane]
Details | Boiling temperature at pressure P [°C] | mass density [kg/m3] | refractive index
[1] | – | – | 1.38668
[2] | – | 679.55 | –
[3] | 98.4 | – | –

[2]
Details | vapor or sublimation pressure
319.06 K | 16.01 kPa
329.07 K | 24.01 kPa
334.91 K | 30.01 kPa
339.08 K | 35.01 kPa
342.78 K | 40.01 kPa
346.14 K | 45.01 kPa
349.19 K | 50.01 kPa and 50 kPa
349.24 K | 50 kPa
352.01 K | 55.01 kPa
354.63 K | 60.01 kPa
357.1 K | 65.01 kPa
359.42 K | 70.01 kPa
361.59 K | 75.01 kPa
361.6 K | 75 kPa
361.66 K | 75 kPa
363.67 K | 80.01 kPa
366.41 K | 87.01 kPa
368.98 K | 94 kPa
368.99 K | 94.01 kPa
369.04 K | 94 kPa
371.63 K | 101.74 kPa
